In US8129371B2, “Thienopyrimidine and pyrazolopyrimidine compounds and their use as mTOR kinase and PI3 kinase inhibitors” (Wyeth LLC, priority 2007, dated 2012):

Legend:
PI3K [1] = target: T1, PI3K (Homo sapiens, UniProt P48736); assay: Fluorescence polarization assay for PI3K; assay type: biochemical; details: PI3 Kinase γ; read-out: PI3 Kinase γ IC50
T1 construct: PI3 Kinase γ IC50; other: PI3 Kinase γ; other: PI3 Kinase γ isoform, fluorescence polarization
Summary of the method: (§1)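 Fluorescence-polarization competition readout: after 30–60 min of PIP2/ATP turnover in 1% DMSO, a stop mix with GST-GRP (70 nM) and red probe (10 nM) was added.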

PI3K [2] = target: T2, PI3K (Homo sapiens, UniProt P42336); assay: Fluorescence polarization assay for PI3K; assay type: biochemical; details: PI3 Kinase α; read-out: PI3 Kinase α IC50
T2 construct: PI3 Kinase α IC50; other: PI3 Kinase α; other: PI3 Kinase α isoform, fluorescence polarization
Summary of the method: as §1

prostate line LNCap = assay: In vitro cell culture growth assay (MTS), LNCap; assay type: cell-based; details: Homo sapiens, LNCaP, 72 h, LNCap cells, three days after drug treatment
Summary of the method: (§2)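 Following a one-day attachment period, cells received inhibitors for 3 days. MTS metabolism by viable cells was quantified at 490 nm absorbance and converted to percent of same-plate vehicle control growth.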

Human mTOR (FLAG-TOR) = target: T3, Human mTOR (FLAG-TOR) (Homo sapiens, UniProt P42345); assay: Human mTOR kinase assay with purified enzyme, DELFIA format; assay type: biochemical
T3 construct: FLAG
Summary of the method: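 DELFIA readout: Eu-anti-P(T389)-S6K antibody (40 ng/mL, 1 h) on captured His6-S6K from the stopped reaction. Kinase step used purified FLAG-tagged human mTOR with test compound in HEPES (pH 7.4)/MnCl2/DTT buffer, 2 h at room temperature (linear 1–6 h), terminated by EDTA/EGTA.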

breast line MDA468 = assay: In vitro cell culture growth assay (MTS), MDA468; assay type: cell-based; details: Homo sapiens, 72 h, MDA468 cells, three days after drug treatment
Summary of the method: as §2

T2 sequence (P42336 whole entry, canonical isoform): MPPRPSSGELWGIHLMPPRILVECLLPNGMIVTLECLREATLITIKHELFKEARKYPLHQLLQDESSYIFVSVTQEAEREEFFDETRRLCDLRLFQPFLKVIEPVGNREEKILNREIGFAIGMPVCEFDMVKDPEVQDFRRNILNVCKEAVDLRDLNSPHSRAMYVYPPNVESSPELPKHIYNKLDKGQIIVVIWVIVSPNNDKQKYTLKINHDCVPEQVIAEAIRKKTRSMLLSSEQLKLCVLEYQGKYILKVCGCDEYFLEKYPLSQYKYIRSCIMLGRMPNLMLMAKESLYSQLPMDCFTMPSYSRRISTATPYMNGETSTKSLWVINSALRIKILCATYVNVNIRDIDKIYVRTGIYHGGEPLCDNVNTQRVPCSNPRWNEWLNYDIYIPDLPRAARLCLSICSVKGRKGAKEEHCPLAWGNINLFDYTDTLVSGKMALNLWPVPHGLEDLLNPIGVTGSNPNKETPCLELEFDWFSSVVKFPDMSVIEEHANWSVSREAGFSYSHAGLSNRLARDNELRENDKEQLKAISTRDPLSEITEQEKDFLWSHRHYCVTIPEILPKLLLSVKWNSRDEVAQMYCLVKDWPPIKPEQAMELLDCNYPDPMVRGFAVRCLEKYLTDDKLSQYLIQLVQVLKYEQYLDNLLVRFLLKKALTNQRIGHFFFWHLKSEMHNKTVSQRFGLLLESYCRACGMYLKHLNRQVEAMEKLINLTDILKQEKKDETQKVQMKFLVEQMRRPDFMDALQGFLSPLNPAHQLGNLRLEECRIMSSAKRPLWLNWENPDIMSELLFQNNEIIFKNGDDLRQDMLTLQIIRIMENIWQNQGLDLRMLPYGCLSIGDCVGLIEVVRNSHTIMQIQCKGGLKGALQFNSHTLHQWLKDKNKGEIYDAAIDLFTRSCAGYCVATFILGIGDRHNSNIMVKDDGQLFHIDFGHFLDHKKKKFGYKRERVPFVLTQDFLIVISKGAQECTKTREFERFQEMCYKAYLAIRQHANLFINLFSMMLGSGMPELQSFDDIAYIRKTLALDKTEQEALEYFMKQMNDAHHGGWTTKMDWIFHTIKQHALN
T1 sequence (P48736 whole entry, canonical isoform): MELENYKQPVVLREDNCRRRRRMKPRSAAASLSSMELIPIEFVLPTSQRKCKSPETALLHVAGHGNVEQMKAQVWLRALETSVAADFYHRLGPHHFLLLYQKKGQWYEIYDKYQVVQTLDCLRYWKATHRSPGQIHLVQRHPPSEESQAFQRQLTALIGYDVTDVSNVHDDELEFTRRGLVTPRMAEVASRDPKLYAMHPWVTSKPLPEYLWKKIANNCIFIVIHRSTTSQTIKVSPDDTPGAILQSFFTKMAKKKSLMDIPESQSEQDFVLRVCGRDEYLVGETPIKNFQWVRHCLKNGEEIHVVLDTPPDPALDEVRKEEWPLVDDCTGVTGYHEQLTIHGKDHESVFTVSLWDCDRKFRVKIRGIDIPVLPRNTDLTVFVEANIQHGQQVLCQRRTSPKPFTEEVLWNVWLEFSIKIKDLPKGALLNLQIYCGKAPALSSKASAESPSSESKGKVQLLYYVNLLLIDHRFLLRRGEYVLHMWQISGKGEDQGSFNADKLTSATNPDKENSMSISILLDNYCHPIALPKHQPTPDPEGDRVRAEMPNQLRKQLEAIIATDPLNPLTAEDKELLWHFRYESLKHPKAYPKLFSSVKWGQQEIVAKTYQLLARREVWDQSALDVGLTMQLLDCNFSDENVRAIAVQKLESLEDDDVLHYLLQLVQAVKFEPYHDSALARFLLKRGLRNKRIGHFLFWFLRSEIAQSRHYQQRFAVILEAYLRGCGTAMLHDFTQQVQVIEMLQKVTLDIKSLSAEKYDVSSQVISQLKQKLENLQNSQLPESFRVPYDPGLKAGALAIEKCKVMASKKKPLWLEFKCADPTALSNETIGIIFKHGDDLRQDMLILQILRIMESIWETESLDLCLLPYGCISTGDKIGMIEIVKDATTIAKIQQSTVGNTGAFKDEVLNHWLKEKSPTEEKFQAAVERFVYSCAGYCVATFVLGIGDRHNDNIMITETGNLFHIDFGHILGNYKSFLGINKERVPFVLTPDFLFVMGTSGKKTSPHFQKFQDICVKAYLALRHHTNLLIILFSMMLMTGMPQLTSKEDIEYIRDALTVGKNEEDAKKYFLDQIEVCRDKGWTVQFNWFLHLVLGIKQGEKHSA

Compound | IC50 (PI3K [1]) | IC50 (PI3K [2]) | IC50 (prostate line LNCap) | IC50 (Human mTOR (FLAG-TOR)) | IC50 (breast line MDA468)
CNC(=O)Nc1ccc(-c2nc(N3CC4CCC(C3)O4)c3cnn(Cc4ccccc4)c3n2)cc1 [Example 77, 1-{4-[1-benzyl-4-(8-oxa-3-azabicyclo[3.2.1]oct-3-yl)-1H-pyrazolo[3,4-d]pyrimidin-6-yl]phenyl}-3-methylurea] | > 10000 nM | 2100 nM | 120 nM | 2.2 nM | 700 nM
CCNC(=O)Nc1ccc(-c2nc(N3CC4CCC(C3)O4)c3cnn(Cc4ccccc4)c3n2)cc1 [Example 78, 1-{4-[1-benzyl-4-(8-oxa-3-azabicyclo[3.2.1]oct-3-yl)-1H-pyrazolo[3,4-d]pyrimidin-6-yl]phenyl}-3-ethylurea] | > 10000 nM | > 10000 nM | 170 nM | 2.6 nM | 1050 nM
O=C(Nc1ccncc1)Nc1ccc(-c2nc(N3CC4CCC(C3)O4)c3cnn(Cc4ccccc4)c3n2)cc1 [Example 79, 1-{4-[1-benzyl-4-(8-oxa-3-azabicyclo[3.2.1]oct-3-yl)-1H-pyrazolo[3,4-d]pyrimidin-6-yl]phenyl}-3-pyridin-4-ylurea] | > 10000 nM | 1980 nM | 20 nM | 1.9 nM | 150 nM
Nc1ccc(-c2nc(N3CC4CCC(C3)O4)c3cnn(C4CCC5(CC4)OCCO5)c3n2)cc1 [Example 81, 4-[1-(1,4-dioxaspiro[4.5]dec-8-yl)-4-(8-oxa-3-azabicyclo[3.2.1]oct-3-yl)-1H-pyrazolo[3,4-d]pyrimidin-6-yl]aniline] | > 10000 nM | > 10000 nM | 1050 nM | 54 nM | 5800 nM
CNC(=O)Nc1ccc(-c2nc(N3CC4CCC(C3)O4)c3cnn(C4CCN(C(=O)C(C)C)CC4)c3n2)cc1 [Example 82, 1-{4-[1-(1-isobutyrylpiperidin-4-yl)-4-(8-oxa-3-azabicyclo[3.2.1]oct-3-yl)-1H-pyrazolo[3,4-d]pyrimidin-6-yl]phenyl}-3-methylurea] | > 10000 nM | 1710 nM | 60 nM | 0.58 nM | 230 nM
CCNC(=O)Nc1ccc(-c2nc(N3CC4CCC(C3)O4)c3cnn(C4CCN(C(=O)C(C)C)CC4)c3n2)cc1 [Example 83, 1-ethyl-3-{4-[1-(1-isobutyrylpiperidin-4-yl)-4-(8-oxa-3-azabicyclo[3.2.1]oct-3-yl)-1H-pyrazolo[3,4-d]pyrimidin-6-yl]phenyl}urea] | > 10000 nM | 2350 nM | 40 nM | 0.76 nM | 240 nM
CC(C)C(=O)N1CCC(n2ncc3c(N4CC5CCC(C4)O5)nc(-c4ccc(NC(=O)NCCO)cc4)nc32)CC1 [Example 84, 1-(2-hydroxyethyl)-3-{4-[1-(1-isobutyrylpiperidin-4-yl)-4-(8-oxa-3-azabicyclo[3.2.1]oct-3-yl)-1H-pyrazolo[3,4-d]pyrimidin-6-yl]phenyl}urea] | > 10000 nM | 1980 nM | 1010 nM | 0.56 nM | 1200 nM
CC(C)C(=O)N1CCC(n2ncc3c(N4CC5CCC(C4)O5)nc(-c4ccc(NC(=O)NCCF)cc4)nc32)CC1 [Example 85, 1-(2-fluoroethyl)-3-{4-[1-(1-isobutyrylpiperidin-4-yl)-4-(8-oxa-3-azabicyclo[3.2.1]oct-3-yl)-1H-pyrazolo[3,4-d]pyrimidin-6-yl]phenyl}urea] | > 10000 nM | 2640 nM | 90 nM | 0.47 nM | 300 nM
CC(C)C(=O)N1CCC(n2ncc3c(N4CC5CCC(C4)O5)nc(-c4ccc(NC(=O)NC5CC5)cc4)nc32)CC1 [Example 86, 1-cyclopropyl-3-{4-[1-(1-isobutyrylpiperidin-4-yl)-4-(8-oxa-3-azabicyclo[3.2.1]oct-3-yl)-1H-pyrazolo[3,4-d]pyrimidin-6-yl]phenyl}urea] | > 10000 nM | 4240 nM | 80 nM | 0.66 nM | 350 nM
COC(=O)Nc1ccc(-c2nc(N3CC4CCC(C3)O4)c3cnn(C(C)(C)C)c3n2)cc1 [Example 92] | > 10000 nM | > 10000 nM | 1800 nM | 11.7 nM | 30000 nM
CNC(=O)Nc1ccc(-c2nc(N3CC4CCC(C3)O4)c3cnn(C(C)(C)C)c3n2)cc1 [Example 93] | > 10000 nM | 202 nM | 23 nM | 0.41 nM | 170 nM

Now from value to compound, other results behind:

IC50 (PI3K [1]) | IC50 (PI3K [2]) | IC50 (prostate line LNCap) | IC50 (Human mTOR (FLAG-TOR)) | Compound | IC50 (breast line MDA468)
4910 nM | 594 nM | 20 nM | 0.62 nM | CC(C)OC(=O)N1CCC(n2ncc3c(N4CC5CCC(C4)O5)nc(-c4ccc(NC(=O)Nc5ccccc5)cc4)nc32)CC1 [Example 71, isopropyl 4-[4-(8-oxa-3-azabicyclo[3.2.1]oct-3-yl)-6-{4-[(phenylcarbamoyl)amino]phenyl}-1H-pyrazolo[3,4-d]pyrimidin-1-yl]piperidine-1-carboxylate] | 170 nM
2690 nM | 324 nM | 1.7 nM | 0.2 nM | CC(C)OC(=O)N1CCC(n2ncc3c(N4CC5CCC(C4)O5)nc(-c4ccc(NC(=O)Nc5cccnc5)cc4)nc32)CC1 [Example 72, isopropyl 4-[4-(8-oxa-3-azabicyclo[3.2.1]oct-3-yl)-6-{4-[(pyridin-3-ylcarbamoyl)amino]phenyl}-1H-pyrazolo[3,4-d]pyrimidin-1-yl]piperidine-1-carboxylate] | 36 nM
672 nM | 460 nM | 0.9 nM | 0.23 nM | CC(C)OC(=O)N1CCC(n2ncc3c(N4CC5CCC(C4)O5)nc(-c4ccc(NC(=O)Nc5ccncc5)cc4)nc32)CC1 [Example 73, isopropyl 4-[4-(8-oxa-3-azabicyclo[3.2.1]oct-3-yl)-6-{4-[(pyridin-4-ylcarbamoyl)amino]phenyl}-1H-pyrazolo[3,4-d]pyrimidin-1-yl]piperidine-1-carboxylate] | 9 nM
9500 nM | 4480 nM | 200 nM | 4.5 nM | COC(=O)Nc1ccc(-c2nc(N3CC4CCC(C3)O4)c3cnn(C4CCN(C(=O)OC(C)C)CC4)c3n2)cc1 [Example 74, isopropyl 4-[6-{4-[(methoxycarbonyl)amino]phenyl}-4-(8-oxa-3-azabicyclo[3.2.1]oct-3-yl)-1H-pyrazolo[3,4-d]pyrimidin-1-yl]piperidine-1-carboxylate] | 6000 nM
> 10000 nM | 1060 nM | 350 nM | 27 nM | CCn1ncc2c(N3CC4CCC(C3)O4)nc(-c3cccc(O)c3)nc21 [Example 75, 3-[1-ethyl-4-(8-oxa-3-azabicyclo[3.2.1]oct-3-yl)-1H-pyrazolo[3,4-d]pyrimidin-6-yl]phenol] | 1300 nM
> 10000 nM | 6690 nM | 1700 nM | 29 nM | CCn1ncc2c(N3CC4CCC(C3)O4)nc(-c3ccc4[nH]ccc4c3)nc21 [Example 76, 1-ethyl-6-(1H-indol-5-yl)-4-(8-oxa-3-azabicyclo[3.2.1]oct-3-yl)-1H-pyrazolo[3,4-d]pyrimidine] | 7000 nM
7020 nM | 396 nM | 30 nM | 0.8 nM | CC(C)C(=O)N1CCC(n2ncc3c(N4CC5CCC(C4)O5)nc(-c4ccc(NC(=O)Nc5ccccc5)cc4)nc32)CC1 [Example 87, 1-{4-[1-(1-isobutyrylpiperidin-4-yl)-4-(8-oxa-3-azabicyclo[3.2.1]oct-3-yl)-1H-pyrazolo[3,4-d]pyrimidin-6-yl]phenyl}-3-phenylurea] | 120 nM
3820 nM | 454 nM | 60 nM | 0.3 nM | CC(C)C(=O)N1CCC(n2ncc3c(N4CC5CCC(C4)O5)nc(-c4ccc(NC(=O)Nc5cccnc5)cc4)nc32)CC1 [Example 88, 1-{4-[1-(1-isobutyrylpiperidin-4-yl)-4-(8-oxa-3-azabicyclo[3.2.1]oct-3-yl)-1H-pyrazolo[3,4-d]pyrimidin-6-yl]phenyl}-3-pyridin-3-ylurea] | 130 nM
2380 nM | 301 nM | 15 nM | 0.26 nM | CC(C)C(=O)N1CCC(n2ncc3c(N4CC5CCC(C4)O5)nc(-c4ccc(NC(=O)Nc5ccncc5)cc4)nc32)CC1 [Example 89, 1-{4-[1-(1-isobutyrylpiperidin-4-yl)-4-(8-oxa-3-azabicyclo[3.2.1]oct-3-yl)-1H-pyrazolo[3,4-d]pyrimidin-6-yl]phenyl}-3-pyridin-4-ylurea] | 63 nM
4330 nM | 412 nM | 12 nM | 0.39 nM | O=C(Nc1ccc(-c2nc(N3CC4CCC(C3)O4)c3cnn(C4CCCCO4)c3n2)cc1)Nc1cccnc1 (centres unmarked) [Example 90, 1-{4-[4-(8-oxa-3-azabicyclo[3.2.1]oct-3-yl)-1-(tetrahydro-2H-pyran-2-yl)-1H-pyrazolo[3,4-d]pyrimidin-6-yl]phenyl}-3-pyridin-3-ylurea] | 60 nM
2640 nM | 306 nM | 500 nM | 0.49 nM | O=C(Nc1ccc(-c2nc(N3CC4CCC(C3)O4)c3cn[nH]c3n2)cc1)Nc1cccnc1 [Example 91, 1-{4-[4-(8-oxa-3-azabicyclo[3.2.1]oct-3-yl)-1H-pyrazolo[3,4-d]pyrimidin-6-yl]phenyl}-3-pyridin-3-ylurea] | 120 nM
